Consider three compounds from patent publication US20200239530A1, “COMPOUNDS AND METHODS OF MODULATING PROTEIN DEGRADATION” (Vividion Therapeutics, Inc., priority 2017, published 2020).

For test [1], the target named is T1, PCGF2 Polycomb group RING finger protein 2 (Homo sapiens, UniProt P35227).
T1 construct: Cells were resuspended in cold PBS on ice and sonicated with a probe sonicator to achieve lysis; endogenous in cells
T1 sequence (P35227 1-344): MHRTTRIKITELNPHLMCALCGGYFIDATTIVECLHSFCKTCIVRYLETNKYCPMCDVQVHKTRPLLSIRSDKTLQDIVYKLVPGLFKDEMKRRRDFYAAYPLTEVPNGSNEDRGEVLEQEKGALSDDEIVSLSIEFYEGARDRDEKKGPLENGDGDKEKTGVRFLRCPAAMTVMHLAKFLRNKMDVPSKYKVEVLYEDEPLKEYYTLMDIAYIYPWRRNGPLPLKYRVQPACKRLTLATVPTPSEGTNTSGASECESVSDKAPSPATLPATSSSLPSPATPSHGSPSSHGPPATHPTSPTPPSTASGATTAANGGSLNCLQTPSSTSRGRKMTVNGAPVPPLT
As to the kind of experiment: Cysteine liganding, probe competition. It is filed as binding. The procedure:
(§1) Cells were resuspended in cold PBS on ice and sonicated with a probe sonicator to achieve lysis. 200 μL of lysate containing 5 mg/ml proteome was treated with 2 μL of 100× compound stock in a 2-mL deep-well plate. The treated lysate was subsequently incubate at 25° C. for 1 hr with shaking at 600 rpm. The treated lysate was further incubated with 2 μL of 10 mM desthiobiotin iodoacetamide probe at 25° C. for 1 hr with shaking at 600 rpm. Next, the lysate was further treat with 20 μL of solution of PBS containing 11 mM MgSO4 and 2.5% Turbonuclease stock and incubated at 25° C. for 20 minutes with shaking at 600 rpm. 1.7 mL ice-cold acetone was added to each well and incubated at −20° C. for 2 hr, followed by max speed (4200 rpm) spin for 45 min. Acetone was then decanted and the plates were blotted to remove acetone. The plates were then dried in open air for 20 minutes. After drying, the plates were then covered with foil seal and stored at −80° C. overnight.
(§2) The next day, samples were re-suspended in 90 μL of solution of 9M urea, 50 mM ammonium bicarbonate and 10 mM DTT by incubating at 65C for 20 min with shaking at 1500 rpm. Next, samples were cooled to 37° C. and then 10 μL of 500 mM iodoacetamide solution (92.48 mg/ml) was added. The samples were then incubated at 37° C. for 30 min with shaking at 600 rpm.
(§3) ZEBA desalting plates were equilibrated 4 times using 250 μL of 2M urea, 50 mM ammonium bicarbonate solution followed by centrifugation at 1500 rpm for 2 minutes. After equilibration was complete, samples were applied to ZEBA desalting plate and spin at 1500 rpm for 2 min on top of 1 mL 96-well deep-well collection plate to buffer exchange samples. 4 μL of solution containing 25 mM CaCl2 and 0.25 mg/mL trypsin was added to the plate and the plate was then incubated at 37° C. for 2 hrs with shaking at 600 rpm. 300 μL of solution containing 5% high-capacity streptavidin agarose slurry in 25 mM Tris-HCl pH 7.5, 150 mM NaCl, and 0.1% NP-40 then added. The plate was incubated at 25° C. for 2 hrs with shaking at 600 rpm. Samples were transferred to 25 μm filter plate and spin at 1000 rpm for 2 min. Samples were then washed 3 times with 0.75 mL of wash buffer (25 mM Tris-HCl pH 7.5, 150 mM NaCl, and 0.1% NP-40) followed by washing 3 times with 0.75 mL PBS, and then 4 times with 0.75 mL water. After the washing step, samples were eluted into polypropylene 96-well plate by addition of 250 µL of 50% MeCN/water, 0.1% formic acid and allowed to gravity drip for 10 min, followed by centrifugation at 1000 rpm for 2 min. Speedvac was used to dry the plates at about 45° C. for […]. Then the plates were covered with foil seal and stored at −20° C.
(§4) Samples were resuspended by addition of 20 μl of 12.5% ACN, 0.1% formic acid solution, covered with foil seal, and incubated at 42° C. for 10 minutes with shaking at 600 rpm. Then add 30 μL of 0.1% formic acid solution was added and the plate was covered and incubated at 42° C. for 10 minutes with shaking at 600 rpm. Seal plate was then sealed with a 96-well silicon mat for analysis.

For test [2], the target named is T2, Polycomb group RING finger protein 6 (PCGF6) (Homo sapiens, UniProt Q9BYE7).
T2 construct: Cells were resuspended in cold PBS on ice and sonicated with a probe sonicator to achieve lysis; endogenous in cells
T2 sequence (Q9BYE7 1-350): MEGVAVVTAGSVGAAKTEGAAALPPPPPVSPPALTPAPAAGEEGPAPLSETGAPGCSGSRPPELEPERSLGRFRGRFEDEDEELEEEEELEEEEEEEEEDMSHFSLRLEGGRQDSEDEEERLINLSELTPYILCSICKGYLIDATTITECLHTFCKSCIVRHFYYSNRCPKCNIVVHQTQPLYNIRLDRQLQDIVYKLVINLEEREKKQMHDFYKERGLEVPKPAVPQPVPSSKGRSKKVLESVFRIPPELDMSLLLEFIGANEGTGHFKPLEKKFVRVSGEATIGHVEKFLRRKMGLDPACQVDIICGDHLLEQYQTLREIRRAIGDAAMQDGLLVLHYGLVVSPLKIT
The test is described as follows: Cysteine liganding, probe competition. It is filed as binding. As for the experimental part:
as §1, §2, §3, §4

Read-outs that look alike come from different tables or passages of the source.

Consider `COc1ccc2c(c1)CCCN2C(=O)CCl` [KB02], for which, in test [1] (PCGF2 Res# 233, uniprot P35227), the Liganded entry is “YES”. Moreover, the inhibition at 500 µM in test [2] (500 uM, read-out: KB02_500 uM_percent_inhibition) came to 37%.

Turning to `C=CC(=O)N(c1ccccc1)c1ccc(Br)cc1` [KB05], the “KB05_100 uM_percent_inhibition” value in test [1] (UniProt P35227, 100 uM) stood at 29%. The inhibition at 100 µM in test [1] (UniProt P35227, 100 uM, read-out: KB05_100 uM_percent_inhibition) stood at 28%. Moreover, the “KB05_500 uM_percent_inhibition” value in test [2] (500 uM) came out at 48%. In addition, the inhibition at 500 µM in test [2] (500 uM, read-out: KB05_500 uM_percent_inhibition) stood at 33%.

`O=C(CCl)Nc1cc(C(F)(F)F)cc(C(F)(F)F)c1` [KBO3]: the “KB03_100 uM_percent_inhibition” value in test [1] (UniProt P35227, 100 uM) was determined as 37%. In test [1] (uniprot P35227), the 100 ave is on record as −4.4 and the 500 ave stood at 35.9. Moreover, in test [1] (uniprot P35227, unit assumed), the 100 Max stood at 5.9% and the 500 Max was 49.9%. The “KB03_100 uM_percent_inhibition” value in test [2] (100 uM) was 41%.
